Legend:
Format in all cases: biochemical
[1] = target: T1, 6His-Tev-LRRK2 (1326-2527) (Homo sapiens, UniProt Q5S007); test: LRRK2 AlphaScreen protein substrate assay; settings: GST-PS-Moesin (400-577) substrate, ATP at Km; read-out: pIC50 in the LRRK2 alphascreen protein substrate assay (converted)
T1 construct: A LRRK2 cDNA encoding residues 1326-2527 was received from Dundee University; made in house; host or cells: Spodoptera frugiperda (Sf9) insect cells, baculovirus
T1 sequence (Q5S007 1326-2527): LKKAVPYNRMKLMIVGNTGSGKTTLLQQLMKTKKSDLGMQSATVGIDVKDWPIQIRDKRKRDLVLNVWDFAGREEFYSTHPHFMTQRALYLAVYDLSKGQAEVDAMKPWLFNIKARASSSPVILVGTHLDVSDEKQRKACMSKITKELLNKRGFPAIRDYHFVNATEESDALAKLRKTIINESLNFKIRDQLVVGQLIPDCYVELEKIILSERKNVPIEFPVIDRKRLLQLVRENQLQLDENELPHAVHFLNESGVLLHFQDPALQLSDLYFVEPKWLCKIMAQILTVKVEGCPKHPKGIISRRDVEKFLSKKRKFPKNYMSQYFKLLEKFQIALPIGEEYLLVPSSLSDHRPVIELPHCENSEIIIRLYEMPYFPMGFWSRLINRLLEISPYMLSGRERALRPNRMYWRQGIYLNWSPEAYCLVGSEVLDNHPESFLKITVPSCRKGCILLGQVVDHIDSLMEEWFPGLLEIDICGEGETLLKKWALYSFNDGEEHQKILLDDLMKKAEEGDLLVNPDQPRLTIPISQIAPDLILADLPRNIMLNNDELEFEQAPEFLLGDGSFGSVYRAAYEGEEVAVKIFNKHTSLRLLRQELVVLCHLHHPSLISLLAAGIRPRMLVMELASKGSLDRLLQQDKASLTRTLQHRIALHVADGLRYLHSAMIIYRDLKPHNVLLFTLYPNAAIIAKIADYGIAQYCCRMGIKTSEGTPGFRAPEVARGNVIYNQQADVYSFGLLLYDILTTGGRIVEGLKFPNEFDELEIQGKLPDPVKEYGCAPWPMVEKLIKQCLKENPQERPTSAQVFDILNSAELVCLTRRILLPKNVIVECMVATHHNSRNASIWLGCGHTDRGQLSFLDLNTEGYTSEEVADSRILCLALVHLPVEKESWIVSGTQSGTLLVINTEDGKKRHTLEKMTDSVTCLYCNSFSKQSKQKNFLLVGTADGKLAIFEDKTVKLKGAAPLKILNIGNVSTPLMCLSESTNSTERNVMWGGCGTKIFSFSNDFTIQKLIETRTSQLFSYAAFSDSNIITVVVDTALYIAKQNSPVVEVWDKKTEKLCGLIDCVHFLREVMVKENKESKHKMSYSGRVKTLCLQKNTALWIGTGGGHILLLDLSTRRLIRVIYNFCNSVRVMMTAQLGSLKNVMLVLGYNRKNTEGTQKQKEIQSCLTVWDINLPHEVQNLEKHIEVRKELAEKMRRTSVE
Procedure: a) 100 nl of a 1:4 serial dilution of test compound with a top final assay concentration of 30 μM is added to certain wells in a low volume 384 well black plate. 100 nl of DMSO is used in certain wells as controls.
b) 3 μl enzyme solution (80 nM purified recombinant 6His-Tev-LRRK2 (1326-2527) in assay buffer: 50 mM Hepes (pH 7.2), 10 mM MgCl2, 150 mM NaCl, 5% glycerol, 0.0025% triton X-100 and 1 mM DTT) is added to certain wells.
Plates are then incubated for a further 1-2 hours at room temperature (incubation time varies depending upon rate and linearity of reaction with differing enzyme batches).
d) 6 μl detection solution (1:250 dilution of AlphaLisa Protein A Acceptor beads (PerkinElmer), 1:64 dilution of AlphaLisa Gluthathione Donor beads (PerkinElmer) and 1:600 dilution (dilution determined on a batch to batch basis) of Phospho-Ezrin (Thr567)/Radixin (Thr564)/Moesin (Thr558) Polyclonal Antibody (New England Biolabs) in a buffer: 50 mM Hepes (pH 7.5), 250 mM NaCl, 60 mM EDTA, 1% PEG and 0.01% Brij 35) is added to each well. Plates are then incubated for a further 2 hours at room temperature in the dark before reading on an EnVision™ plate reader with AlphaScreen HTS turbo option module and AlphaScreen settings. Data is analysed using ActivityBase software (IDBS).

[2] = target: T1, 6His-Tev-LRRK2 (1326-2527); test: LRRK2 AlphaScreen desensitised protein substrate assay
Method in brief: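 Purified 6His-Tev-LRRK2 (1326-2527), 80 nM in enzyme solution, in pH 7.2 Hepes buffer with MgCl2 and DTT; compound 1:4 dilutions, top final 30 μM. ATP 2 mM in substrate solution, 20 min at room temperature. Phospho-ERM (Thr567/564/558) detected by AlphaScreen.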

[3] = target: T1, 6His-Tev-LRRK2 (1326-2527); test: LRRK2 peptide substrate assay; settings: Biotin-LRRKtide peptide substrate, ATP at Km
Method in brief: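 Recombinant 6His-Tev-LRRK2 (1326-2527), 80 nM in enzyme solution, in pH 7.2 Hepes/MgCl2 buffer with DTT; compounds in 1:4 serial dilution from 30 μM top final. Reaction 1-2 h at room temperature, stopped with EDTA; phospho-moesin (Thr558) antibody with Eu/APC TR-FRET detection after 2 h (ex 330, em 620/665 nm).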

[4] = excess of ATP present (2 mM ATP), read-out: pIC50 in the LRRK2 alphascreen desensitised protein substrate assay (converted)
[5] = read-out: pIC50 in the LRRK2 peptide substrate assay (converted)
[6] = mean pIC50, GST-PS-Moesin (400-577) substrate, 2 mM ATP (excess of ATP present), read-out: LRRK2 alphascreen desensitised protein substrate assay (pIC50) (converted)
[7] = mean pIC50, read-out: LRRK2 peptide substrate assay (pIC50) (converted)

Row | Compound | IC50 [1] [nM] | IC50 [2, 4] [nM] | IC50 [3, 5] [nM] | IC50 [2, 6] [nM] | IC50 [3, 7] [nM]
1 | COc1cccc(COc2ccc(Br)cc2C(=O)Nc2cccnc2)c1 [Example 18, 5-Bromo-2-({[3-(methyloxy)phenyl]methyl}oxy)-N-3-pyridinylbenzamide] | ≤ 7940 | > 25100 | – | – | –
2 | O=C(O)Cc1cccc(NC(=O)c2cc(Cl)ccc2OCc2ccccc2)c1 [Example 25, {3-[({5-Chloro-2-[(phenylmethyl)oxy]phenyl}carbonyl)amino]phenyl}acetic acid] | ≤ 7940 | – | – | – | –
3 | Cn1cc(-c2ccc(OCc3ccc(F)c(F)c3)c(C(=O)Nc3cccnc3)c2)cn1 [Example 110, 2-{[(3,4-Difluorophenyl)methyl]oxy)-5-(1-methyl-1H-pyrazol-4-yl)-N-3-pyridinylbenzamide] | – | ≤ 20000 | ≤ 100 | – | –
4 | O=C(Nc1cnoc1)c1cc(-c2ccncc2)ccc1OCc1ccccc1 [Example 63, N-4-Isoxazolyl-2-[(phenylmethyl)oxy]-5-(4-pyridinyl)benzamide] | – | ≤ 20000 | ≤ 100 | – | –
5 | CC(O)c1ccc(OCc2ccccc2)c(C(=O)Nc2cccnc2)c1 (centres unmarked) [Example 75, 5-(1-Hydroxyethyl)-2-[(phenylmethyl)oxy]-N-3-pyridinylbenzamide] | – | ≤ 20000 | ≤ 10 | – | –
6 | O=C(Nc1ccnnc1)c1cc(-c2ccncc2)ccc1OCc1ccc(F)c(F)c1 [Example 106, 2-([(3,4-Difluorophenyl)methyl]oxy)-N-4-pyridazinyl-5-(4-pyridinyl)benzamide] | – | ≤ 20000 | ≤ 100 | – | –
7 | O=C(Nc1cncc(F)c1)c1cc(Br)ccc1OCc1ccccc1 [Example 98, 5-Bromo-N-(5-fluoro-3-pyridinyl)-2-[(phenylmethyl)oxy]benzamide] | – | > 25100 | ≤ 100 | – | –
8 | O=C(Nc1cccnc1)c1cc(CN2CCOCC2)ccc1OCc1ccc(F)c(F)c1 [Example 112, 2-{[(3,4-Difluorophenyl)methyl]oxy}-5-(4-morpholinylmethyl)-N-3-pyridinylbenzamide] | – | ≤ 20000 | ≤ 100 | – | –
9 | COC(=O)NCc1ccc(OCc2ccccc2)c(C(=O)Nc2cccnc2)c1 [Example 86, Methyl ({4-[(phenylmethyl)oxy]-3-[(3-pyridinylamino)carbonyl]phenyl}methyl)carbamate] | – | ≤ 20000 | ≤ 10 | – | –
10 | O=C(Nc1cccnc1)c1cc(OC[C@H]2CCCN2)ccc1OCc1ccccc1 [Example 44, 2-[(Phenylmethyl)oxy]-N-3-pyridinyl-5-{[(2R)-2-pyrrolidinylmethyl]oxy}benzamide] | – | ≤ 20000 | ≤ 10 | – | –
11 | Cn1cc(-c2ccc(OCc3ccc(F)c(F)c3)c(C(=O)Nc3ccnnc3)c2)cn1 [Example 105, 2-{[(3,4-Difluorophenyl)methyl]oxy}-5-(1-methyl-1H-pyrazol-4-yl)-N-4-pyridazinylbenzamide] | – | ≤ 20000 | ≤ 100 | – | –
12 | CNCCOc1ccc(OCc2ccccc2)c(C(=O)Nc2cccnc2)c1 [Example 48, 5-{[2-(Methylamino)ethyl]oxy}-2-[(phenylmethyl)oxy]-N-3-pyridinylbenzamide] | – | ≤ 20000 | ≤ 100 | – | –
13 | O=C(Nc1cccnc1)c1cc(CN2CCOCC2)ccc1OCc1ccc(F)cc1 [Example 117, 2-{[(4-Fluorophenyl)methyl]oxy}-5-(4-morpholinylmethyl)-N-3-pyridinylbenzamide] | – | ≤ 20000 | ≤ 100 | 794 | 20
14 | O=C(Nc1ccnnc1)c1cc(CN2CCOCC2)ccc1OCc1ccc(F)cc1 [Example 119, 2-{[(4-Fluorophenyl)methyl]oxy}-5-(4-morpholinylmethyl)-N-4-pyridazinyl benzamide] | – | ≤ 20000 | ≤ 100 | – | –
15 | O=C(Nc1cccnc1)c1cc(-c2cn[nH]c2)ccc1OCc1ccccc1 [Example 99, 2-[(Phenylmethyl)oxy]-5-(1H-pyrazol-4-yl)-N-3-pyridinylbenzamide] | – | ≤ 20000 | ≤ 10 | – | –
16 | COCCn1cc(-c2ccc(OCc3ccc(F)cc3)c(C(=O)Nc3cccnc3)c2)cn1 [Example 130, 2-{[(4-Fluorophenyl)methyl]oxy}-5-{1-[2-(methyloxy)ethyl]-1H-pyrazol-4-yl}-N-3-pyridinylbenzamide] | – | ≤ 20000 | ≤ 10 | 31.6 | 3.16
17 | O=C(Nc1cncc(F)c1)c1cc(-c2ccncc2)ccc1OCc1ccccc1 [Example 102, N-(5-Fluoro-3-pyridinyl)-2-[(phenylmethyl)oxy]-5-(4-pyridinyl)benzamide] | – | > 25100 | ≤ 100 | – | –
18 | O=C(Nc1cccnc1)c1cc(-c2cnn(CCN3CCOCC3)c2)ccc1OCc1ccc(F)cc1 [Example 128, 2-{[(4-Fluorophenyl)methyl]oxy}-5-{1-[2-(4-morpholinyl)ethyl]-1H-pyrazol-4-yl}-N-3-pyridinylbenzamide] | – | ≤ 20000 | ≤ 10 | 126 | 7.94
19 | Cn1cc(-c2ccc(OCc3ccc(F)cc3)c(C(=O)Nc3ccnnc3)c2)cn1 [Example 94, 2-{[(4-Fluorophenyl)methyl]oxy}-5-(1-methyl-1H-pyrazol-4-yl)-N-4-pyridazinylbenzamide] | – | ≤ 20000 | ≤ 100 | 100 | 12.6
20 | O=C(Nc1cn[nH]c1)c1cc(Br)ccc1OCc1ccccc1 [Example 51, 5-Bromo-2-[(phenylmethyl)oxy]-N-1H-pyrazol-4-ylbenzamide] | – | ≤ 20000 | ≤ 100 | – | –
21 | COC(=O)NCc1ccc(OCc2ccc(F)cc2)c(C(=O)Nc2cccnc2)c1 [Example 118, Methyl ({4-{[(4-fluorophenyl)methyl]oxy}-3-[(3-pyridinylamino)carbonyl]phenyl}methyl)carbamate] | – | ≤ 20000 | ≤ 10 | – | –
22 | O=C(Nc1cccnc1)c1cc(CN2CCOCC2)ccc1OCc1ccccc1 [Example 69, 5-(4-Morpholinylmethyl)-2-[(phenylmethyl)oxy]-N-3-pyridinylbenzamide] | – | ≤ 20000 | ≤ 100 | 501 | 15.8

From patent US8778939B2, “Compounds” (Glaxo Group Limited, priority 2009, dated 2014)
